Among the data in patent US10774071B2, “PD-1/PD-L1 inhibitors” (Gilead Sciences, Inc., priority 2018, dated 2020) are IC50 and AC50 values, retold here.

Where two headings read alike, the source gives them in different places.

Broadly, the IC50 is the concentration needed to halve the response being measured. One may read the AC50 as the midpoint of the concentration-response curve, whichever way the signal moves.

In one experiment the target is PD-1/PD-L1 (Homo sapiens (Human), UniProt Q9NZQ7). Nature of the experiment: PD-1/PD-L1 biochemical protein-protein interaction assay (ALPHA). Conditions: read-out: IC50 PD-L1-PD1. In kind it is binding. The procedure: Compounds were tested in biochemical protein-protein interaction assays to determine if they can specifically block the interaction between the extracellular domains of PD-1/PD-L1 or CTLA/CD80. Binding of the protein pairs is measured using a bead based Amplified Luminescent Proximity Homogeneous Assay (ALPHA) platform. […] Final protein concentration in the assays were 0.3 nM (His tagged PD-L1), 2.5 nM (biotinylated Fc-PD-1), 1 nM (His tagged CTLA4) and 1 nM (biotinylated CD80).

In a further experiment the target is PD-L1 (Homo sapiens (Human), UniProt Q9NZQ7). Briefly: PD-L1/PD-L1 dimerization biochemical protein-protein interaction assay (ALPHA). In kind it is binding. Conditions: read-out: AC50 PDL1 Dimer 1 nM.
Setting [1] is: 0.3 nM His tagged PD-L1, 2.5 nM biotinylated Fc-PD-1, readings of 0.064 nM are equal to or less than 0.064 nM.
The mark [2] stands for this setting: 0.5 nM His tagged PD-L1 and 0.5 nM FLAG tagged PD-L1, Table 4A.
[3] abbreviates: 0.3 nM His tagged PD-L1, 2.5 nM biotinylated Fc-PD-1, Table 3B.
The mark [4] stands for this setting: 0.5 nM His tagged PD-L1 and 0.5 nM FLAG tagged PD-L1, Table 4B.

Chain of PD-1/PD-L1 (Q9NZQ7 19-238): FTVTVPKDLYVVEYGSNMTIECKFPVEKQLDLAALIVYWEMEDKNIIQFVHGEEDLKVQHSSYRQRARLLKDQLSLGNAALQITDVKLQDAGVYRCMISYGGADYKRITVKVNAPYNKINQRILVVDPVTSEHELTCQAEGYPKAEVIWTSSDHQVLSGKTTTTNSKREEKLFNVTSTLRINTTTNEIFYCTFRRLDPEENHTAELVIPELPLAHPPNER
Chain of PD-L1 (Q9NZQ7 19-238): as above
Chain of PD-L1 (Q9NZQ7 19-238): as above

Consider `COc1nc(-c2cccc(-c3cccc4c3CC[C@@H]4Nc3nc(OC)c(CN(C)[C@@H](C)C(=O)O)nc3C(F)(F)F)c2Cl)ccc1CNC[C@@H]1CCC(=O)N1` [A-96], for which the IC50 at PD-1/PD-L1 (setting [1]) was ≤ 0.064 nM. Moreover, the AC50 on PD-L1 (setting [2]) was 3.97 nM.

With `COc1nc(-c2cccc(-c3cccc4c3CC[C@@H]4Oc3nc(OC)c(CNC4(C(=O)O)CC4)nc3C(F)(F)F)c2Cl)ccc1CNC[C@@H]1CCC(=O)N1` [B-247], the half-maximal inhibitory concentration (IC50) on PD-1/PD-L1 (setting [3]) is 0.064 nM. Further, the AC50 on PD-L1 (setting [4]) is 10.4 nM.

Regarding `COc1nc(-c2cccc(-c3cccc4c3CC[C@@H]4Oc3nc(OC)c(CN4CC(C(=O)O)C4)cc3Cl)c2C#N)ccc1CNC[C@@H]1CCC(=O)N1` [B-74], the IC50 on PD-1/PD-L1 (setting [3]) is 0.064 nM. The AC50 on PD-L1 (setting [4]) stood at 94.1 nM.

Regarding `COc1nc(N[C@H]2CCc3c(-c4cccc(-c5ccc(CNC[C@@H]6CCC(=O)N6)c(OCC#N)n5)c4Cl)cccc32)c(C(F)(F)F)cc1CN1CCC[C@@]1(C)C(=O)O` [A-27], at PD-1/PD-L1 (setting [1]), the IC50 is ≤ 0.064 nM. On PD-L1 (setting [2]), the AC50 came to 7.77 nM.

On to `COc1nc(-c2cccc(-c3cccc4c3CC[C@@H]4Nc3nc(OC)c(CN[C@H](C(=O)O)C4CC4)cc3C(F)(F)F)c2Cl)ccc1CN[C@H]1C[C@](C)(O)C1` [A-90], for which, at PD-1/PD-L1 (setting [1]), the IC50 is ≤ 0.064 nM. Moreover, the AC50 on PD-L1 (setting [2]) was 21.6 nM.

In the case of `COc1nc(-c2cccc(-c3cccc4c3CC[C@@H]4Oc3nc(OC)c(CN4CC(C(=O)O)C5(CCOC5)C4)cc3Cl)c2Cl)ccc1CNC[C@@H]1CCC(=O)N1` (stereo partly drawn) [B-70], the IC50 on PD-1/PD-L1 (setting [3]) was determined as 0.064 nM. In addition, on PD-L1 (setting [4]), the AC50 amounted to 31.9 nM.

`COc1nc(-c2cccc(-c3cccc4c3CC[C@@H]4Oc3nc(OC)c(CN4CCC5CC4(C(=O)O)C5)cc3C(F)(F)F)c2Cl)ccc1CNC[C@@H]1CCC(=O)N1` [B-233]: the half-maximal inhibitory concentration (IC50) on PD-1/PD-L1 (setting [3]) amounted to 0.064 nM. The AC50 on PD-L1 (setting [4]) is 0.518 nM.

For the compound `COc1nc(-c2cccc(-c3cccc4c3CC[C@@H]4Oc3nc(OC)c(CN4CC5(CC(C(=O)O)C5)C4)cc3Cl)c2Cl)ccc1CNC[C@@H]1CCC(=O)N1` [B-24], the IC50 on PD-1/PD-L1 (setting [3]) stood at 0.064 nM. For the same compound, at PD-L1 (setting [4]), the concentration at half-maximal activity (AC50) turned out to be 19.4 nM.

`COc1nc(-c2cccc(-c3cccc4c3CC[C@@H]4Oc3nc(OC)c(CNCC4(C(=O)O)CC4)cc3C(F)(F)F)c2Cl)ccc1CN[C@H]1C[C@](C)(O)C1` [B-251]: the IC50 at PD-1/PD-L1 (setting [3]) was 0.064 nM. In addition, the half-maximal activity concentration (AC50) at PD-L1 (setting [4]) stood at 17.7 nM.

For the compound `COc1nc(-c2cccc(-c3cccc4c3CC[C@@H]4Nc3nc(OC)c(CN4CCC5CC4(C(=O)O)C5)cc3C(F)(F)F)c2Cl)ccc1CN1CC(C)(O)C1` [A-56], the IC50 on PD-1/PD-L1 (setting [1]) was ≤ 0.064 nM. For the same compound, the AC50 on PD-L1 (setting [2]) came to 11.8 nM.

`COc1nc(O[C@H]2CCc3c(-c4cccc(-c5cnc([C@H](C)NC[C@@H]6CCC(=O)N6)c(OC)n5)c4Cl)cccc32)c(Cl)cc1CN1CC[C@@H](C(=O)O)C1` [B-91]: the half-inhibitory concentration (IC50) on PD-1/PD-L1 (setting [3]) is 0.064 nM. Moreover, the AC50 on PD-L1 (setting [4]) was 33.8 nM.

With `COc1nc(-c2cccc(-c3cccc4c3CC[C@@H]4Oc3nc(OC)c(CN4CC5CCC(C(=O)O)(C5)C4)cc3Cl)c2Cl)ccc1CNC[C@@H]1CCC(=O)N1` (stereo partly drawn) [B-11], the half-maximal inhibitory concentration (IC50) at PD-1/PD-L1 (setting [3]) amounted to 0.066 nM. For the same compound, the AC50 at PD-L1 (setting [4]) turned out to be 71.4 nM.

`COc1nc(-c2cccc(-c3cccc4c3CC[C@@H]4Oc3nc(OC)c(CNC[C@@H]4CCC(=O)N4)nc3C)c2Cl)ccc1CNC[C@@H]1CCC(=O)N1` [B-151]: on PD-1/PD-L1 (setting [3]), the IC50 came to 0.072 nM. In addition, the AC50 on PD-L1 (setting [4]) is 66.2 nM.

Turning to `COc1nc(-c2cccc(-c3cccc4c3CC[C@@H]4Oc3nc(OC)c(CN[C@@H](C)C(=O)O)cc3C(F)(F)F)c2Cl)ccc1CN[C@H]1C[C@](C)(O)C1` [B-215], the IC50 on PD-1/PD-L1 (setting [3]) amounted to 0.064 nM. In addition, the concentration at half-maximal activity (AC50) on PD-L1 (setting [4]) came to 8.42 nM.

`COc1cc(-c2cccc(-c3cccc4c3CC[C@@H]4Nc3nc(OC)c(CN4CC5(C(=O)O)CCC4CC5)nc3C(F)(F)F)c2Cl)cc(F)c1CNC[C@@H]1CCC(=O)N1` [A-33]: the IC50 on PD-1/PD-L1 (setting [1]) is ≤ 0.064 nM. Besides, the AC50 on PD-L1 (setting [2]) came out at 11.7 nM.

Take `COC(=O)[C@H](C)NCc1nc(C(F)(F)F)c(N[C@H]2CCc3c(-c4cccc(-c5ccc(CNC[C@@H]6CCC(=O)N6)c(OC)n5)c4Cl)cccc32)nc1OC` [A-99]: the IC50 at PD-1/PD-L1 (setting [1]) was found to be 0.397 nM. Further, the half-maximal activity concentration (AC50) at PD-L1 (setting [2]) was found to be 110 nM.

In the case of `COc1nc(-c2cccc(-c3cccc4c3CC[C@@H]4Oc3nc(OC)c(CNC4(C(=O)O)CC4)cc3C)c2Cl)ccc1CNC[C@@H]1CCC(=O)N1` [B-246], at PD-1/PD-L1 (setting [3]), the IC50 was 0.064 nM. The AC50 on PD-L1 (setting [4]) is 14 nM.

In the case of `COc1nc(-c2cccc(-c3cccc4c3CC[C@@H]4Nc3nc(OC)c(CNCCC(=O)O)cc3C(F)(F)F)c2Cl)ccc1CN[C@H]1C[C@](C)(O)C1` [A-89], the 50% inhibitory concentration (IC50) on PD-1/PD-L1 (setting [1]) was determined as 0.072 nM. The AC50 at PD-L1 (setting [2]) worked out at 81.8 nM.

For `COc1nc(-c2cccc(-c3cccc4c3CC[C@@H]4Oc3nc(OC)c(CNC[C@H]4C[C@H](O)C4)cc3C(F)(F)F)c2Cl)ccc1CNC[C@@H]1CCC(=O)N1` [B-262], the 50% inhibitory concentration (IC50) on PD-1/PD-L1 (setting [3]) came to 0.064 nM. The AC50 on PD-L1 (setting [4]) amounted to 2.2 nM.

For the compound `COc1nc(-c2cccc(-c3cccc4c3CC[C@@H]4Oc3nc(OC)c(CN4CC[C@@H](C(=O)O)C4)nc3Cl)c2Cl)ccc1CNC[C@@H]1CCC(=O)N1` [B-154], the half-maximal inhibitory concentration (IC50) at PD-1/PD-L1 (setting [3]) is 0.064 nM. Also, the AC50 at PD-L1 (setting [4]) worked out at 31.5 nM.

As to `COc1nc(-c2cccc(-c3cccc4c3CC[C@@H]4Oc3nc(OC)c(CN[C@H](C(=O)O)C(C)C)cc3C(F)(F)F)c2Cl)ccc1CN[C@H]1C[C@](C)(O)C1` [B-212], on PD-1/PD-L1 (setting [3]), the IC50 turned out to be 0.064 nM. Further, the AC50 at PD-L1 (setting [4]) came out at 17.5 nM.

Consider `COc1nc(-c2cccc(-c3cccc4c3CC[C@@H]4Oc3nc(OC)c(CN4CC5CC(C(=O)O)C4C5)cc3Cl)c2Cl)ccc1CNC[C@@H]1CCC(=O)N1` (stereo partly drawn) [B-184], for which the IC50 at PD-1/PD-L1 (setting [3]) was determined as 0.064 nM. Further, the AC50 at PD-L1 (setting [4]) was 19.8 nM.

Consider `COc1nc(-c2cccc(-c3cccc4c3CC[C@@H]4Nc3nc(OC)c(CN[C@@H](C)C(=O)O)cc3C(F)(F)F)c2Cl)ccc1CN1CC(C)(O)C1` [A-63], for which the IC50 on PD-1/PD-L1 (setting [1]) is ≤ 0.064 nM. At PD-L1 (setting [2]), the concentration at half-maximal activity (AC50) was found to be 34.4 nM.

`COc1cc(N[C@H]2CCc3c(-c4cccc(-c5ccc(CNC[C@@H]6CCC(=O)N6)c(OC)n5)c4Cl)cccc32)c(C(F)(F)F)nc1CNC1(C(=O)O)CC1` [A-37]: on PD-1/PD-L1 (setting [1]), the IC50 is ≤ 0.064 nM. The AC50 at PD-L1 (setting [2]) was 6.26 nM.

For the compound `COc1nc(-c2cccc(-c3cccc4c3CC[C@@H]4Oc3nc(OC)c(CN4CC5(C(=O)O)CCC4CC5)cc3C(F)(F)F)c2Cl)ccc1CNC[C@H]1C[C@](C)(O)C1` [B-209], the IC50 on PD-1/PD-L1 (setting [3]) was determined as 0.064 nM. The AC50 on PD-L1 (setting [4]) came out at 11.7 nM.

Turning to `COc1nc(-c2cccc(-c3cccc4c3CC[C@@H]4Oc3nc(OC)c(CN4C[C@@H]5CC[C@]5(C(=O)O)C4)cc3Cl)c2Cl)ccc1CNC[C@@H]1CCC(=O)N1` [B-93], the half-maximal inhibitory concentration (IC50) on PD-1/PD-L1 (setting [3]) amounted to 0.064 nM. The AC50 on PD-L1 (setting [4]) came to 55 nM.

On to `COc1cc(-c2cccc(-c3cccc4c3CC[C@@H]4Oc3nc(OC)c(CN4CC5(C(=O)O)CCC4CC5)cc3C(F)(F)F)c2Cl)ccc1CNC[C@@H]1CCC(=O)N1` [B-140], for which the half-maximal inhibitory concentration (IC50) at PD-1/PD-L1 (setting [3]) worked out at 0.064 nM. Also, the AC50 on PD-L1 (setting [4]) is 2.28 nM.

Take `COc1nc(-c2cccc(-c3cccc4c3CC[C@@H]4Nc3nc(OC)c(CN4CC(C(=O)O)C4)cc3C(F)(F)F)c2Cl)ccc1CN[C@H]1C[C@](C)(O)C1` [A-57]: the IC50 at PD-1/PD-L1 (setting [1]) is ≤ 0.064 nM. On PD-L1 (setting [2]), the AC50 worked out at 29.6 nM.

With `COc1nc(-c2cccc(-c3cccc4c3CC[C@@H]4Oc3nc(OC)c(CNC(C)(CO)C(=O)O)cc3C)c2Cl)ccc1CNC[C@@H]1CCC(=O)N1` (stereo partly drawn) [B-240], the IC50 on PD-1/PD-L1 (setting [3]) was 0.064 nM. Moreover, the AC50 at PD-L1 (setting [4]) turned out to be 12.1 nM.

For the compound `COc1nc(-c2cccc(-c3cccc4c3CC[C@@H]4Nc3nc(OC)c(CN4CC5(C(=O)O)CCC4CC5)nc3C(F)(F)F)c2Cl)ccc1CNC[C@@H]1CC(O)C(=O)N1` (stereo partly drawn) [A-47], the IC50 at PD-1/PD-L1 (setting [1]) is ≤ 0.064 nM. Moreover, on PD-L1 (setting [2]), the AC50 turned out to be 22.3 nM.
